These results are taken from patent US12702689B2, “Anti-inflammatory compositions, and uses thereof” (P.L. THOMAS & CO., INC., priority 2022, dated 2026).

Experiment [1] concerns gut microbiota including Akkermansia; Bifidobacteria. Particulars: in vitro; cited from earlier work.
Experiment [2] can be described thus: Body weight change in OVA allergic airway model. Format: in vivo, BALB/cJ female mice. Particulars: OVA+AKBA mice, 100 mg/kg AKBA by gavage, beginning to end of experiment; mean±SD. The text has this: Eight-week-old BALB/cJ female mice were purchased from the Jackson Laboratory (Bar Harbor, ME, US) and housed in plastic cages with corncob bedding at the University of Connecticut Health (Farmington, CT.). Animal rooms maintained a 12-h light/dark cycle and were pathogen free. Mice were fed a 18% protein rodent diet (18.6% protein, 6.2% fat, 44.2% carbohydrate, 3.5% soluble fiber, 14.7% total fiber, 5.3% ash) purchased from Envigo (Indianapolis, IN, US) and supplied autoclaved water. Allergic airway phenotype was induced by using an ovalbumin (OVA, hen egg) sensitization and challenge model as previously described with modifications [Beigelman, A. et al. Azithromycin attenuates airway inflammation in a noninfectious mouse model of allergic asthma. Chest 136, 498-506 (2009)]. Briefly (FIG. 1), two groups of mice (OVA control and OVA+AKBA) were sensitized with intraperitoneal ovalbumin plus alum on days 0 and 7, challenged for 3 days (day 14 to day 17) via nebulized OVA at 1% in PBS for 30 mins, and harvested 48 hr after final challenge. Supplementation groups (OVA+AKBA) were given 100 mg/kg of water soluble AKBA (pH 7) (PLT Health Solutions, Morristown, NJ, US) in autoclaved mouse water, via gavage, every other day for 10 days and then every day for the remainder of the experiment (9 days). OVA control and naïve mouse continued to receive normal autoclaved mouse water. […]

For a further experiment, the system named is gut microbiome. The experiment in a line: Gut microbiome profiling of fecal pellets by 16S rRNA sequencing. The class given is in vivo, BALB/cJ female mice. The text has this:
Allergic airway phenotype was induced by using an ovalbumin (OVA, hen egg) sensitization and challenge model as previously described with modifications [Beigelman, A. et al. Azithromycin attenuates airway inflammation in a noninfectious mouse model of allergic asthma. Chest 136, 498-506 (2009)]. Briefly (FIG. 1), two groups of mice (OVA control and OVA+AKBA) were sensitized with intraperitoneal ovalbumin plus alum on days 0 and 7, challenged for 3 days (day 14 to day 17) via nebulized OVA at 1% in PBS for 30 mins, and harvested 48 hr after final challenge. Supplementation groups (OVA+AKBA) were given 100 mg/kg of water soluble AKBA (pH 7) (PLT Health Solutions, Morristown, NJ, US) in autoclaved mouse water, via gavage, every other day for 10 days and then every day for the remainder of the experiment (9 days). OVA control and naïve mouse continued to receive normal autoclaved mouse water. Mice were weighted at the beginning and end of the experiment. Experiments involving AKBA were conducted twice, with the first group containing 5 mice per group and the second containing 15 mice per group (5 per group for naive). Experiment procedures were identical, and results were pooled for n=20 (n=5 for naive). Animal protocol 102063-0522 was approved by the University of Connecticut Health IACUC board. Experiments were repeated, as stated above, with oral gavages of B. pseudolongum culture in place of AKBA supplementation. Groups were designated as OVA control (n=10), OVA+B. pseudolongum (n=10) and naïve (n=5). OVA+B. pseudolongum groups were given 10^8 CFU B. pseudolongum in culture medium via gavage, every other day for 10 days and then every day for the remainder of the experiment (9 days). Fresh fecal pellets were collected upon defecation and stored in sterile RNA-/DNA-/RNAse-/DNAse-free microcentrifuge tubes at the beginning and end of experiment (FIG. 1). Collected pellets were placed at −80° C. for storage following collection. DNA from pellets were extracted using the PowerSoil DNA Isolation Kit (Qiagen, Hilden, Germany) according to the manufacturer's protocol. Amplicon library preparation and V4 region of 16S rRNA gene sequencing were performed at Illumina HiSeq 4000 (Illumina, CA, US) platform. Raw 16S rRNA sequences (150-bp paired-end reads) were initially processed by BaseSpace software (Illumina, CA, US). One mismatch in primer and zero mismatch in barcodes were applied to sample deconvolution. Deconvoluted sequences were further processed using the DADA2 data processing pipeline with default parameters to obtain amplicon sequence variants (ASVs). Final taxonomic assignment was conducted using RDP-classifier (v2.11) with 0.5 confidence value as cut-off. Reads with <0.5 confidence of classification was “unclassified” at a given taxonomical level. ASV counts were converted to relative abundance and agglomerated at the phylum and genus levels using the Phyloseq R package to visualize the microbiome composition in a stacked bar plot. […] Sample reads were rarefied to 10,000 reads to account for uneven sampling depth. Alpha diversity was determined with the richness and Shannon diversity metrics at the ASV level. Wilcoxon sum rank test was performed to compare alpha diversity of stool microbiome between asthma control and AKBA treated mice at day 0 and day 19. Beta diversity was visualized by principal component analysis (PCA). DESeq2, with an adjusted p value<0.05, was used for the differential taxa analysis. All plots were created with “ggplot2” and all analyses were conducted in RStudio version 4.1.0.

The subject of experiment [3] is BAL leukocytes and eosinophils. The experiment in a line: BAL fluid total and differential cell counts in OVA allergic airway model. The class given is in vivo, BALB/cJ female mice. To be noted: 100 mg/kg AKBA.
Experiment [4] concerns gut microbiome (Bifidobacterium). To be noted: healthy mice; cited from earlier work.
In a further experiment the test system is OVA-specific IgE. Briefly: Serum OVA-specific IgE, anti-OVA ELISA. Format: in vivo, BALB/cJ female mice. To be noted: OVA+AKBA mice, 100 mg/kg AKBA; at sacrifice; p=0.3223 vs OVA control.
Setting [5] is: AKBA treated mice, baseline vs endpoint, DESeq p<0.05.

As for `CC(=O)O[C@@H]1CC[C@@]2(C)[C@@H](CC[C@]3(C)[C@@H]2C(=O)C=C2[C@@H]4[C@@H](C)[C@H](C)CC[C@]4(C)CC[C@]23C)[C@@]1(C)C(=O)O` [AKBA, 3-O-acetyl-11-keto-b-boswellic acid], in experiment [1], the “effect on certain gut microbiota including Akkermansia” value was “selectively inhibited” and the “feeding effect on Bifidobacteria” value is on record as “no direct feeding effect”. Further, the “total average weight change, % of starting weight” value in experiment [2] was −2.32±4.19%. In the experiment on gut microbiome (setting [5]), the “change in Hyphomicrobium, Solirubrobacter and Steroidobacter” value is “decreases”; the “change in Lactiplantibacillus, Lacticaseibacillus and Turicibacter” value is “increases”. Besides, the “overall richness and Shannon diversity of gut microbiome, baseline to endpoint” value with gut microbiome (OVA+AKBA group, 100 mg/kg AKBA) was “maintained”. Further, in the experiment on gut microbiome (OVA+AKBA group, baseline to endpoint, Wilcoxon p=0.07 vs OVA control), the “Bifidobacterium increase, fold change” value is 15.94±15.84 fold. The “the 24 genera decreased in OVA control mice (Table 1): decreased in treated group” value in the experiment on gut microbiome (OVA+AKBA group, baseline vs end point) is reported as “None”. In addition, the “relative abundances of Actinobacteria phyla and Bifidobacterium genus vs OVA control mice” value with gut microbiome (OVA+AKBA mice) is on record as “significantly higher”. For the same molecule, the “BAL total leukocyte counts lower versus OVA control group” value in experiment [3] (Mann-Whitney p=0.0002) is 46.69%. Besides, in experiment [3] (Mann-Whitney p=0.0212), the “BAL total leukocyte counts higher than naïve control” value amounted to 60.38%. For the same molecule, the “percent eosinophil in BAL” value in experiment [3] (OVA+AKBA mice) was found to be 31.4%. Further, in experiment [3] (OVA+AKBA mice, mean±SD), the “absolute number of eosinophils in BAL” value turned out to be 17317.95±5552.67 eosinophil/mL. Also, the “relative abundances of Bifidobacterium” value in experiment [4] is recorded as “increases”. Also, in the experiment on OVA-specific IgE, the “serum OVA-specific IgE” value is 1275.98 ± 503.22 ng/mL.
